Literature values, collected in patent US20250144118A1, “MIFEPRISTONE ORAL FORM FOR ITS USE IN CERVIX RIPENING AND LABOUR INDUCTION” (NORDIC GROUP B.V., priority 2020, published 2025).

How the values were obtained:
[1] = system: cervix of pregnant women beyond 41 weeks' gestation; settings: 200 mg mifepristone orally, findings not statistically significant
[2] = system: cervix of women in full-term pregnancy; settings: clinical trial
[3] = system: cervix of women in term pregnancies; settings: 50, 100, 200, 400 and 600 mg of mifepristone; regardless of the dose

In the case of `CC#C[C@]1(O)CC[C@H]2[C@@H]3CCC4=CC(=O)CCC4=C3[C@@H](c3ccc(N(C)C)cc3)C[C@@]21C` [mifepristone, Mifepristone], the “Bishop score after 24 hours vs. placebo” value [1] is listed as “improve the Bishop score after 24 hours vs. placebo”, the use of prostaglandin ([1]; vs. placebo) is listed as “reduce the use of prostaglandin” and the “induction of cervical ripening and labour” value [2] is listed as “efficient on inducing cervical ripening and labour”. The efficiency vs placebo [3] was “no more effective than placebo”.
